Assay results: article PMC9500858 (International Journal of Molecular Sciences, 2022)
Where two headings read alike, the source gives them in different places.

Experiments:
[1] = tested on: CA1 region of the hippocampus; conditions: combined administration with NMDA, cited from earlier work
Description: Since hybrid compounds have gained attention due to their potent multifunctional behavior with a more favorable profile in terms of possible side effects, much work devoted to such compounds can be found. PK20 and [Ile^9]PK20, which are hybrid structures encompassing both opioid and neurotensin pharmacophores, although modified, were designed and synthesized to reduce pain.

[2] = tested on: CA1 region of the hippocampus; assay: Excitotoxic injury in organotypic hippocampal slice cultures subjected to NMDA; assay type: cell-based, Rat; conditions: administered simultaneously with NMDA, data not published

Substance	extent of damage to the CA1 region of the hippocampus ([1]; dose 25 ng/mL)	extent of damage to the CA1 region of the hippocampus ([1]; dose 50 ng/mL)	extent of damage to the CA1 region of the hippocampus ([1]; dose 100 ng/mL)	extent of damage to the CA1 region of the hippocampus ([2]; dose 25 ng/mL)	extent of damage to the CA1 region of the hippocampus ([2]; dose 50 ng/mL)	extent of damage to the CA1 region of the hippocampus ([2]; dose 100 ng/mL)
HELM PEPTIDE1{[Cc1cc(O)cc(C)c1C[C@H](N)C(=O)[*:2]].[dK].F.F.K.K.P.F.[CC(C)(C)[C@H](N[*:1])C(=O)[*:2]].L}$$$$V2.0 (N-terminus assumed; SMILES Cc1cc(O)cc(C)c1C[C@H](N)C(=O)N[C@H](CCCCN)C(=O)N[C@@H](Cc1ccccc1)C(=O)N[C@@H](Cc1ccccc1)C(=O)N[C@@H](CCCCN)C(=O)N[C@@H](CCCCN)C(=O)N1CCC[C@H]1C(=O)N[C@@H](Cc1ccccc1)C(=O)N[C@H](C(=O)N[C@@H](CC(C)C)C(=O)O)C(C)(C)C) [PK20, opioid–neurotensin hybrid peptide]	1.47% ± 1.20	5.18% ± 2.84	6.82% ± 6.08	–	–	–
HELM PEPTIDE1{[Cc1cc(O)cc(C)c1C[C@H](N)C(=O)[*:2]].[dK].F.F.K.K.P.F.I.L}$$$$V2.0 (N-terminus assumed; SMILES CC[C@H](C)[C@H](NC(=O)[C@H](Cc1ccccc1)NC(=O)[C@@H]1CCCN1C(=O)[C@H](CCCCN)NC(=O)[C@H](CCCCN)NC(=O)[C@H](Cc1ccccc1)NC(=O)[C@H](Cc1ccccc1)NC(=O)[C@@H](CCCCN)NC(=O)[C@@H](N)Cc1c(C)cc(O)cc1C)C(=O)N[C@@H](CC(C)C)C(=O)O) [[Ile^9]PK20, analogue of PK20 with Ile instead of Tle at position 9]	–	–	–	8.53% ± 2.65	19.04% ± 8.52	8.62% ± 0.62
